Results taken from patent US20060069132A1, “Azolecarboxamide herbicides” (priority 2004, published 2006).

What was measured:
[1] = system: barnyardgrass; test: Test B pre-/postemergence herbicide test; format: in vivo, Echinochloa crus-galli; conditions: for Barnyardgrass plant response rating: postemergence, visual rating, scale 0 (no effect) to 100 (complete control)
Outline: (§1)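 Greenhouse pot assay with simultaneous preemergence (treated seed) and postemergence (2–18 cm seedlings) applications of surfactant-containing, non-phytotoxic solvent formulations. Response scored visually 13–15 days later on a 0–100 scale, 100 meaning complete control.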

[2] = system: smallflower umbrella sedge; test: Test C flooded paddy test; format: in vivo, Cyperus difformis
[3] = system: rice; test: Test C flooded paddy test; format: in vivo, Oryza sativa
Outline: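 Postemergence sprays applied to plants 2 to 18 cm tall (1- to 4-leaf stage); paddy species grown to 2-leaf stage under flooding. After 12 to 14 days in greenhouse, visual rating versus untreated controls on 0–100 scale (0 no effect, 100 complete control).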

[4] = system: pigweed; test: Test B pre-/postemergence herbicide test; format: in vivo, Amaranthus retroflexus; conditions: for Pigweed plant response rating: postemergence, visual rating, scale 0 (no effect) to 100 (complete control)
Outline: (§2)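 Pre: seeds sown, then sprayed. Post: 1–4-leaf plants (2–18 cm) sprayed at the same time. Paddy: flooded, treated at 2-leaf stage. Formulation: non-phytotoxic solvent with surfactant. Greenhouse 13–15 days; visual 0–100 score relative to controls.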

[5] = system: corn; test: Test B pre-/postemergence herbicide test; format: in vivo, Zea mays; conditions: for Corn plant response rating: postemergence, visual rating, scale 0 (no effect) to 100 (complete control)
Outline: as §2

[6] = system: ducksalad; test: Test B flooded paddy test; format: in vivo, Heteranthera limosa; conditions: 1000 g ai/ha, visual rating, scale 0 to 100 (0 no effect, 100 complete control), 13 to 15 days
Outline: (§3)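 Greenhouse test; postemergence application to plants at 1–4 leaves (2–18 cm); paddy species at 2 leaves; evaluated visually vs controls at 13–15 days; scale 0–100 (100 = complete control).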

[7] = system: barnyardgrass; test: Test B flooded paddy test; format: in vivo, Echinochloa crus-galli; conditions: 1000 g ai/ha, visual rating, scale 0 to 100 (0 no effect, 100 complete control), 13 to 15 days
Outline: as §3

[8] = system: Surinam grass; test: Test B pre-/postemergence herbicide test; format: in vivo, Urochloa decumbens; conditions: for Surinam Grass plant response rating: postemergence, visual rating, scale 0 (no effect) to 100 (complete control)
Outline: as §2

[9] = system: barnyardgrass; test: Test C flooded paddy test; format: in vivo, Echinochloa crus-galli
Outline: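 Ratings (0 = no effect, 100 = complete control) come from visual comparison with untreated plants after 12 to 14 days in the greenhouse. Treatment was postemergence at the 1- to 4-leaf stage (2–18 cm), or at the 2-leaf stage for the flooded paddy barnyardgrass.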

[10] = system: wheat; test: Test B postemergence herbicide test; format: in vivo, Triticum aestivum; design: key to Wheat plant response rating: 0 = no effect, 100 = complete control; conditions: postemergence, visual rating, scale 0 (no effect) to 100 (complete control)
Outline: (§4)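 Each value is a visual 0–100 response rating taken against controls 13 to 15 days after treatment in the greenhouse. Plants received formulated chemical postemergence at the 1- to 4-leaf stage or, in flooded paddy, at the 2-leaf stage.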

[11] = system: rice; test: Test B pre-/postemergence herbicide test; format: in vivo, Oryza sativa; conditions: preemergence
Outline: as §2

[12] = system: blackgrass; test: Test B postemergence herbicide test; format: in vivo, Alopecurus myosuroides; conditions: postemergence, visual rating, scale 0 (no effect) to 100 (complete control)
Outline: as §3

[13] = system: wild oat; test: Test B postemergence herbicide test; format: in vivo, Avena fatua; conditions: postemergence, visual rating, scale 0 (no effect) to 100 (complete control)
Outline: as §4

[14] = system: large crabgrass; test: Test B pre-/postemergence herbicide test; format: in vivo, Digitaria sanguinalis; conditions: for Crabgrass, Large plant response rating: postemergence, visual rating, scale 0 (no effect) to 100 (complete control)
Outline: as §2

[15] = system: lambsquarters; test: Test B pre-/postemergence herbicide test; format: in vivo, Chenopodium album; conditions: for Lambsquarters plant response rating: postemergence, visual rating, scale 0 (no effect) to 100 (complete control)
Outline: as §2

[16] = system: giant foxtail; test: Test B pre-/postemergence herbicide test; format: in vivo, Setaria faberi; conditions: for Foxtail, Giant plant response rating: postemergence, visual rating, scale 0 (no effect) to 100 (complete control)
Outline: as §2

[17] = system: rice; test: Test B flooded paddy test; format: in vivo, Oryza sativa; conditions: 1000 g ai/ha, visual rating, scale 0 to 100 (0 no effect, 100 complete control), 13 to 15 days
Outline: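 Plants grow to 1- to 4-leaf stage (2–18 cm) for postemergence spraying, or to 2-leaf stage for the paddy test. Formulated compound is applied. Greenhouse holding lasts 13–15 days. Response is scored visually relative to controls, 0 no effect to 100 complete control; a dash means no result.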

[18] = system: velvetleaf; test: Test B pre-/postemergence herbicide test; format: in vivo, Abutilon theophrasti; conditions: for Velvetleaf plant response rating: postemergence, visual rating, scale 0 (no effect) to 100 (complete control)
Outline: as §2

[19] = system: ducksalad; test: Test C flooded paddy test; format: in vivo, Heteranthera limosa
[20] = system: small flower umbrella sedge; test: Test B flooded paddy test; format: in vivo, Cyperus difformis; conditions: 1000 g ai/ha, visual rating, scale 0 to 100 (0 no effect, 100 complete control), 13 to 15 days
Outline: as §3

[21] = system: morningglory; test: Test B pre-/postemergence herbicide test; format: in vivo, Ipomoea coccinea; conditions: for Morningglory plant response rating: postemergence, visual rating, scale 0 (no effect) to 100 (complete control)
Outline: as §1

[22] = system: cocklebur; test: Test B pre-/postemergence herbicide test; format: in vivo, Xanthium strumarium; conditions: for Cocklebur plant response rating: postemergence, visual rating, scale 0 (no effect) to 100 (complete control)
Outline: as §1

[23] = 125 g ai/ha, 0 = no effect, 100 = complete control, preemergence
[24] = 500 g ai/ha, visual rating 0-100, 0 no effect, 100 complete control, preemergence
[25] = 62 g ai/ha, scale 0 to 100 (0 no effect, 100 complete control)
[26] = 125 g ai/ha, scale 0 to 100 (0 no effect, 100 complete control)
[27] = 250 g ai/ha, scale of 0 to 100, 0 is no effect, 100 is complete control
[28] = 500 g ai/ha, visual rating after 12 to 14 days, scale 0 to 100 (0 no effect, 100 complete control)

CCNC(=O)c1cccc(NC(=O)c2cn(C(C)(C)C)nc2C)c1 [Compound 183]
Barnyardgrass plant response rating (0 to 100 scale) [1, 23]: 20 | Plant response rating, Barnyardgrass [1, 24]: 70 | Barnyardgrass plant response rating ([1]; 125 g ai/ha): 0 | Barnyardgrass plant response rating ([1]; 500 g ai/ha): 0 | Sedge, Umbrella plant response rating [2, 25]: 0 | Sedge, Umbrella plant response rating [2, 26]: 0 | Sedge, Umbrella plant response rating [2, 27]: 10 | Plant response rating, Sedge, Umbrella [2, 28]: 50 | Rice plant response rating [3, 25]: 0 | Rice plant response rating [3, 26]: 0 | Rice plant response rating [3, 27]: 0 | Plant response rating, Rice [3, 28]: 0 | Pigweed plant response rating (0 to 100 scale) [4, 23]: 100 | Plant response rating, Pigweed [4, 24]: 100 | Pigweed plant response rating ([4]; 125 g ai/ha): 70 | Pigweed plant response rating ([4]; 500 g ai/ha): 80 | Corn plant response rating (0 to 100 scale) [5, 23]: 0 | Plant response rating, Corn [5, 24]: 0 | Corn plant response rating ([5]; 125 g ai/ha): 20 | Corn plant response rating ([5]; 500 g ai/ha): 20 | Ducksalad plant response rating [6]: 70 | Barnyardgrass plant response rating [7]: 60 | Surinam Grass plant response rating (0 to 100 scale) [8, 23]: 20 | Plant response rating, Surinam Grass [8, 24]: 50 | Surinam Grass plant response rating ([8]; 125 g ai/ha): 0 | Surinam Grass plant response rating ([8]; 500 g ai/ha): 20 | Barnyardgrass plant response rating [9, 25]: 0 | Barnyardgrass plant response rating ([9]; 125 g ai/ha, scale of 0 to 100, 0 is no effect, 100 is complete control): 0 | Barnyardgrass plant response rating [9, 27]: 0 | Plant response rating, Barnyardgrass [9, 28]: 0 | Wheat plant response rating ([10]; 125 g ai/ha): 0 | Wheat plant response rating ([10]; 500 g ai/ha): 0 | Rice plant response rating (0 to 100 scale) ([11]; 125 g ai/ha, 0 = no effect, 100 = complete control): 0 | Plant response rating, Rice ([11]; 500 g ai/ha, visual rating 0-100, 0 no effect, 100 complete control): 80 | Blackgrass plant response rating ([12]; 125 g ai/ha): 0 | Blackgrass plant response rating ([12]; 500 g ai/ha): 10 | Oat, Wild plant response rating ([13]; 125 g ai/ha): 10 | Oat, Wild plant response rating ([13]; 500 g ai/ha): 20 | Crabgrass, Large plant response rating (0 to 100 scale) [14, 23]: 10 | Plant response rating, Crabgrass, Large [14, 24]: 90 | Crabgrass, Large plant response rating ([14]; 125 g ai/ha): 20 | Crabgrass, Large plant response rating ([14]; 500 g ai/ha): 30 | Lambsquarters plant response rating (0 to 100 scale) [15, 23]: 50 | Plant response rating, Lambsquarters [15, 24]: 100 | Lambsquarters plant response rating ([15]; 125 g ai/ha): 70 | Lambsquarters plant response rating ([15]; 500 g ai/ha): 80 | Foxtail, Giant plant response rating (0 to 100 scale) [16, 23]: 0 | Plant response rating, Foxtail, Giant [16, 24]: 80 | Foxtail, Giant plant response rating ([16]; 125 g ai/ha): 20 | Foxtail, Giant plant response rating ([16]; 500 g ai/ha): 30 | Rice plant response rating [17]: 0 | Velvetleaf plant response rating (0 to 100 scale) [18, 23]: 10 | Plant response rating, Velvetleaf [18, 24]: 50 | Velvetleaf plant response rating ([18]; 125 g ai/ha): 40 | Velvetleaf plant response rating ([18]; 500 g ai/ha): 60 | Ducksalad plant response rating [19, 25]: 0 | Ducksalad plant response rating [19, 26]: 0 | Ducksalad plant response rating [19, 27]: 10 | Plant response rating, Ducksalad [19, 28]: 20 | Sedge, Umbrella plant response rating [20]: 80 | Morningglory plant response rating (0 to 100 scale) [21, 23]: 10 | Plant response rating, Morningglory [21, 24]: 10 | Morningglory plant response rating ([21]; 125 g ai/ha): 60 | Morningglory plant response rating ([21]; 500 g ai/ha): 70 | Cocklebur plant response rating (0 to 100 scale) [22, 23]: 0 | Plant response rating, Cocklebur [22, 24]: 0 | Cocklebur plant response rating ([22]; 125 g ai/ha): 50 | Cocklebur plant response rating ([22]; 500 g ai/ha): 90
